Results: US20250074892A1, “CARBONYL BRIDGED HETEROCYCLIC COMPOUND, AND COMPOSITION AND APPLICATION THEREOF” (BEIJING SCITECH-MQ PHARMACEUTICALS LIMITED, priority 2022, published 2025)
Like-named read-outs stand apart in the source and are kept apart here. One block for each compound: values may come before it.

Legend:
[1] = Rat PK&BBB (pharmacokinetics and brain penetration); type: in vivo, SD rats; conditions: for clearance: read-out: Cl—obs; for bioavailability: PO 30 mg/kg vs IV 3 mg/kg; for Kp at 2 h / concentration at 2 h / concentration at 0 h / concentration at 0.083 h / concentration at 0.25 h / concentration at 0.5 h / concentration at 1 h / concentration at 4 h / concentration at 7 h / concentration at 24 h: Sprague-Dawley; for Kp at 2 h: brain / whole blood, read-out: Brain/blood ratio
Description: (§1) In this assay, the pharmacokinetic characteristics and ability to penetrate the blood-brain barrier of the compounds of the present application were assayed after administration of some of the compounds of the present application to SD rats, CD-1 mice or beagle dogs by single oral administration and intravenous injection.
(§2) 1. Intravenous (IV) injection group: an appropriate amount of the assay compound was weighed, and completely dissolved in an appropriate volume of vehicle. The mixture was stirred, vortexed and/or sonicated. Once a solution was obtained, the vehicle was gradually added to a final volume to reach the target concentration. The solution was vortexed, and sonicated to obtain a homogeneous solution. The solution was filtered through a 0.22 m PVDF membrane.
as §2, with “2. Oral (PO)” for “1. Intravenous (IV) injection”, “solution.” for “solution. The solution was filtered through a 0.22 m PVDF membrane.”
(§3) Meanwhile, the IV group was not fasted and the PO group was fasted overnight (>12 hrs) and given food 2 hrs after drug administration. All animals had free access to water. The dosing regimen and pharmacokinetic sampling regimen are given in Table 10 and Table 11 below, respectively.
Rats were administered according to the above protocol, and blood and brain tissue samples were collected and processed at predetermined time points (collection and processing were performed according to conventional methods in the art).
(§4) The brain was weighed and homogenized by adding 4 times of ultrapure water. Six times volume of acetonitrile was added respectively to the whole blood samples and brain homogenate (20 times volume of acetonitrile was added to the whole blood sample of mouse PK). The mixture was vortexed for 1 min and then centrifuged at 4° C., 4500 rpm for 15 min. According to the instrument response, the supernatant was diluted with diluent and the sample was analyzed by LC/MS.
(§5) Pharmacokinetic parameters were calculated using WinNonlin software. The following pharmacokinetic parameters were calculated if appropriate plasma/whole blood drug concentration-time data were available: CL (clearance); Vd (apparent volume of distribution); T1/2 (elimination half-life time); Cmax (peak concentration); Tmax (time to peak); AUC (area under plasma drug concentration-time curve); MRT (mean retention time); F % (bioavailability).

L929 cells = assay: Inhibition of cell necrosis (CCK8 method), L929 cells; type: cell-based, mouse; conditions: Mus musculus, L929, L929, Murine TNF-α/Z-VAD-FMK, 4-8 hours, CCK8
Procedure, shortened: (§6)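 HT29 (1.2×10^4/well) and L929 (2.0×10^4/well) cells were pretreated 30 min with compound, 9-point 4-fold series from 10 μM in duplicate. Necrosis was induced with human TNF-α 20 ng/mL, AT-406 […] and Z-VAD-FMK 20 μM for 16 h (HT29), or murine TNF-α 20 ng/mL and Z-VAD-FMK 25 μM for 4-8 h (L929). CCK8 viability; IC50 from dose-effect curve.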

HT29 cells = assay: Inhibition of cell necrosis (CCK8 method), HT29 cells; type: cell-based, human; conditions: Homo sapiens, HT-29, 16 h, HT29, Human TNF-α/AT-406/Z-VAD-FMK, 16 hours, CCK8
Procedure, shortened: as §6

[2] = Beagle PK (pharmacokinetics); type: in vivo, beagle dogs; conditions: whole blood, Beagle dog
Description: as §1, §2
as §2, with “2. Oral (PO)” for “1. Intravenous (IV) injection”, “solution.” for “solution. The solution was filtered through a 0.22 m PVDF membrane.”
as §3, §4, §5

[3] = PO 30 mg/kg, 2 h after administration
[4] = rat, brain, po, 30 mg/kg, PO 30 mg/kg, 2 h after administration, read-out: Brain concentration
[5] = rat, whole blood, iv, 3 mg/kg, IV 3 mg/kg, read-out: Blood drug concentration
[6] = rat, whole blood, iv, 3 mg/kg, IV 3 mg/kg, 2 hr, read-out: Blood drug concentration
[7] = rat, whole blood, po, 30 mg/kg, PO 30 mg/kg, read-out: Blood drug concentration
[8] = rat, whole blood, po, 30 mg/kg, PO 30 mg/kg, 2 hr, read-out: Blood drug concentration
[9] = rat, whole blood, po, 30 mg/kg, PO 30 mg/kg, 24 hr, read-out: Blood drug concentration
[10] = rat, whole blood, po, 30 mg/kg, PO 30 mg/kg, whole blood, 2 h after administration, read-out: Blood drug concentration
[11] = IV 1 mg/kg, read-out: Blood drug concentration
[12] = PO 3 mg/kg, read-out: Blood drug concentration

AUC(0-inf) ([1]; SD, whole blood, IV 3 mg/kg): 592 ± 57 ng·h/mL
AUC(0-t) ([1]; SD, whole blood, IV 3 mg/kg): 588 ± 56 ng·h/mL
Vd ([1]; SD, whole blood, IV 3 mg/kg): 7.84 ± 0.5 L/kg
half-life ([1]; SD, whole blood, IV 3 mg/kg): 1.07 ± 0.08 h
clearance ([1]; SD, whole blood, IV 3 mg/kg): 85 ± 8.4 mL/min/kg
AUC(0-inf) ([1]; SD, whole blood, PO 30 mg/kg): 1970 ± 768 ng·h/mL
AUC(0-t) ([1]; SD, whole blood, PO 30 mg/kg): 1900 ± 868 ng·h/mL
Cmax ([1]; SD, whole blood, PO 30 mg/kg): 581 ± 228 ng/mL
Tmax ([1]; SD, whole blood, PO 30 mg/kg): 1.17 ± 0.76 h
half-life ([1]; SD, whole blood, PO 30 mg/kg): 2.84 ± 0.46 h
bioavailability ([1]; SD, whole blood): 33.2 ± 13%
Kp at 2 h [1, 3]: 1.13
concentration at 2 h [1, 4]: 309 ng/g
concentration at 0 h [1, 5]: 0 ng/mL
concentration at 0.083 h [1, 5]: 865 ± 45 ng/mL
concentration at 0.25 h [1, 5]: 496 ± 33 ng/mL
concentration at 0.5 h [1, 5]: 295 ± 29 ng/mL
concentration at 1 h [1, 5]: 119 ± 14 ng/mL
concentration at 2 h [1, 6]: 61.9 ± 8.5 ng/mL
concentration at 4 h [1, 5]: 13.2 ± 5 ng/mL
concentration at 7 h [1, 5]: 2.37 ± 0.77 ng/mL
concentration at 0 h [1, 7]: 0 ng/mL
concentration at 0.25 h [1, 7]: 185 ± 86 ng/mL
concentration at 0.5 h [1, 7]: 416 ± 92 ng/mL
concentration at 1 h [1, 7]: 547 ± 248 ng/mL
concentration at 2 h [1, 8]: 372 ± 258 ng/mL
concentration at 4 h [1, 7]: 109 ± 99 ng/mL
concentration at 7 h [1, 7]: 59.8 ± 34.9 ng/mL
concentration at 24 h [1, 9]: 0.93 ng/mL
concentration at 2 h [1, 10]: 274 ng/mL
SMILES: O=C(C1CCN(c2cc(-c3cc(OCCCO)ccc3F)ccn2)CC1)N1N=CC[C@H]1c1cc(F)cc(F)c1 (racemic) [Example 40]
IC50 (L929 cells): 10 to 50 nM
IC50 (HT29 cells): ≤ 10 nM

concentration at 24 hr ([1]; SD, rat, whole blood, iv, 3 mg/kg, IV 3 mg/kg, 24 hr, read-out: Blood drug concentration): 19.9 ± 2.4 ng/mL
AUC(0-inf) ([1]; SD, whole blood, IV 3 mg/kg): 4140 ± 234 ng·h/mL
AUC(0-t) ([1]; SD, whole blood, IV 3 mg/kg): 3990 ± 225 ng·h/mL
Vd ([1]; SD, whole blood, IV 3 mg/kg): 5.5 ± 0.38 L/kg
half-life ([1]; SD, whole blood, IV 3 mg/kg): 5.25 ± 0.14 h
clearance ([1]; SD, whole blood, IV 3 mg/kg): 12.1 ± 0.7 mL/min/kg
AUC(0-inf) ([1]; SD, whole blood, PO 30 mg/kg): 26500 ± 3060 ng·h/mL
AUC(0-t) ([1]; SD, whole blood, PO 30 mg/kg): 24200 ± 2750 ng·h/mL
Cmax ([1]; SD, whole blood, PO 30 mg/kg): 1580 ± 205 ng/mL
Tmax ([1]; SD, whole blood, PO 30 mg/kg): 6 ± 1.73 h
half-life ([1]; SD, whole blood, PO 30 mg/kg): 6.33 ± 1.56 h
bioavailability ([1]; SD, whole blood): 64 ± 7.4%
Kp at 2 h [1, 3]: 0.915
concentration at 2 h [1, 4]: 1970 ng/g
concentration at 0 h [1, 5]: 0 ng/mL
concentration at 0.083 h [1, 5]: 798 ± 302 ng/mL
concentration at 0.25 h [1, 5]: 565 ± 166 ng/mL
concentration at 0.5 h [1, 5]: 445 ± 70 ng/mL
concentration at 1 h [1, 5]: 368 ± 53 ng/mL
concentration at 2 h [1, 6]: 303 ± 39 ng/mL
concentration at 4 h [1, 5]: 269 ± 25 ng/mL
concentration at 7 h [1, 5]: 199 ± 23 ng/mL
concentration at 0 h [1, 7]: 0 ng/mL
concentration at 0.25 h [1, 7]: 266 ± 89 ng/mL
concentration at 0.5 h [1, 7]: 654 ± 74 ng/mL
concentration at 1 h [1, 7]: 1250 ± 67 ng/mL
concentration at 2 h [1, 8]: 1300 ± 178 ng/mL
concentration at 4 h [1, 7]: 1380 ± 387 ng/mL
concentration at 7 h [1, 7]: 1550 ± 153 ng/mL
concentration at 24 h [1, 9]: 237 ± 95 ng/mL
concentration at 2 h [1, 10]: 2150 ng/mL
AUC(0-inf) ([2]; IV 1 mg/kg): 3380 ± 342 ng·h/mL
AUC(0-t) ([2]; IV 1 mg/kg): 2920 ± 268 ng·h/mL
Vd ([2]; IV 1 mg/kg): 3.7 ± 1.05 L/kg
half-life ([2]; IV 1 mg/kg): 8.72 ± 3 h
concentration at 0 hr [2, 11]: 0 ng/mL
concentration at 0.083 hr ([2]; IV 1 mg/kg, 0.083 hr, read-out: Blood drug concentration): 535 ± 62 ng/mL
concentration at 0.25 hr [2, 11]: 451 ± 77 ng/mL
concentration at 0.5 h [2, 11]: 390 ± 13 ng/mL
concentration at 1 h [2, 11]: 253 ± 49 ng/mL
concentration at 2 h [2, 11]: 236 ± 69 ng/mL
concentration at 4 h [2, 11]: 176 ± 29 ng/mL
concentration at 7 h [2, 11]: 133 ± 14 ng/mL
concentration at 24 hr ([2]; IV 1 mg/kg, 24 hr, read-out: Blood drug concentration): 32.9 ± 13.5 ng/mL
clearance ([2]; IV 1 mg/kg, read-out: Cl—obs): 4.97 ± 0.51 mL/min/kg
AUC(0-inf) ([2]; PO 3 mg/kg): 18000 ± 939 ng·h/mL
AUC(0-t) ([2]; PO 3 mg/kg): 11200 ± 2940 ng·h/mL
Cmax ([2]; PO 3 mg/kg): 1510 ± 396 ng/mL
Tmax ([2]; PO 3 mg/kg): 1.17 ± 0.76 h
half-life ([2]; PO 3 mg/kg): 18.1 ± 5 h
bioavailability ([2]; PO 3 mg/kg vs IV 1 mg/kg): 127 ± 28%
concentration at 0 hr [2, 12]: 0 ng/mL
concentration at 0.25 hr [2, 12]: 645 ± 362 ng/mL
concentration at 0.5 h [2, 12]: 1320 ± 406 ng/mL
concentration at 1 h [2, 12]: 1170 ± 696 ng/mL
concentration at 2 h [2, 12]: 1320 ± 320 ng/mL
concentration at 4 h [2, 12]: 560 ± 231 ng/mL
concentration at 7 h [2, 12]: 406 ± 145 ng/mL
concentration at 24 h ([2]; PO 3 mg/kg, 24 hr, read-out: Blood drug concentration): 260 ± 19 ng/mL
SMILES: CC(C)(O)COc1ccc(F)c(-c2ccnc(N3CCC(C(=O)N4N=CC[C@H]4c4cc(F)cc(F)c4)CC3)c2)c1 (racemic) [Example 42]
IC50 (L929 cells): ≤ 10 nM
IC50 (HT29 cells): ≤ 10 nM
